Test results taken from patent publication US20260150838A1, “ASCAROSIDE DERIVATIVES” (Ascribe Bioscience Inc., priority 2023, published 2026).
Where “and” joins values, the source holds several entries; their conditions need not be identical. Equal entries are not always repeated.

Columns and labels:
[1] = uptake and metabolism of ascaroside amides in alfalfa seedlings (LC-MS of tissue extracts); type: in vivo; settings: for hydrolysis or metabolism by the plant: alfalfa plants, timeframe shown (24 h + 4 h)
Experimental: Ascaroside analogs 1a, 1b, and 1c were also evaluated in alfalfa seedlings to assess whether plants take up these analogs and whether they are hydrolyzed or metabolized to other ascarosides (specifically to ascr #18 and/or ascr #18 metabolites). The ascr #18 metabolism was evaluated by assaying the plant tissues for the known ascaroside metabolite ascr #9.
(§1) Alfalfa seeds were germinated in the dark on culture plates (10 seeds per plate) containing Gelzan growth medium and were allowed to grow for 3-4 days before treatment. Treatment consisted of flooding the plates with 10 μM aqueous solutions of one of the ascaroside analogs 1a, 1b, or 1c, with ascr #18 (as a positive control), or with plain water as a mock treatment (5 ml total volume, solutions prepared in MQ water). Each experiment was performed in duplicate. After 24 hours, the plates were moved to an illuminated growth chamber for 4 hours before sampling.
Sprouts were collected, thoroughly rinsed with MQ water, dried, flash-frozen, and homogenized. The homogenized tissues were extracted with 100% ethanol and the extracts were analyzed using high-resolution liquid chromatography-mass spectrometry (LC-MS). LC-MS analysis was performed using a Dionex 3000 UPLC coupled with a Thermo Q Exactive high-resolution mass spectrometer equipped with a HESI ion source. To measure ascarosides, samples were chromatographed using an Agilent Zorbax Eclipse column (150 mm×2.1 mm, particle size 1.98 μm) maintained at 40° C. with a 0.5 ml/min flow rate. Solvent A: 0.1% formic acid in water; Solvent B: 0.1% formic acid in acetonitrile. A solvent mixture using 1% B was used for 1.5 min after injection, followed by a linear gradient up to 99% B at 9.5 min, followed by 0.75 min of 99% B, then back to 1% B over 0.5 min, and finally held at 1% B for an additional 1.25 min to re-equilibrate the column (total time: 12 min, with needle washing and file writing: ˜14 min). Mass spectrometer parameters: spray voltage (−3.0 kV or +3.5 kV); capillary temperature 380° C.; probe heater temperature 400° C.; sheath, auxiliary, and sweep gas 60, 20, and 2 AU, respectively—S-Lens RF level: 50, resolution 120,000 at m/z 200, AGC target 3E6. Samples were injected and analyzed in negative electrospray ionization mode with an m/z range of 100-1000. Ascr #18 (C17H32O6) ionizes in negative ion mode as C17H31O6, m/z=331.2126, retention time 6 minutes using the above chromatographic conditions. Samples were also analyzed in positive ionization mode.
(§2) The treatment solutions used to treat the sprouts were also analyzed assayed and the results are shown in the Column of Table 1 labeled “Input” In each case, only the analog, or ascr #18 respectively is detected, indicating the molecules are stable in the treatment solutions.

Bipolaris sorokiniana = experiment: wheat pathogen assay (fungal infection of wheat seedlings); type: in vivo; settings: FIG. 1; for infection symptoms (symptomatic areas relative to the total leaf area) compared to mock: wheat cv. Louise sprayed with 1 μM solution in 0.1% Tween-20, inoculated 48 hours later with Bipolaris sorokiniana spores; for efficacy in reducing fungal infection relative to ascr #18: wheat, 1 μM solutions
Experimental: The products of Examples 1, 1a to 1, 1c (hereafter referred to as compounds 1a, 1b, and 1c) were evaluated in a wheat pathogen assay to assess the potential of these analogs to prevent crop damage caused by a fungal pathogen. Wheat seeds of cv. Louise were planted in potting soil and grown for two weeks in a growth chamber at 26° C. and 23° C., respectively, with 16 hours of light. After two weeks, the plants were sprayed with a 1 μM solution of ascr #18, or compounds 1a, 1b, or 1c containing 0.1% (v/v) Tween®-20 in water solution, or with a mock solution only containing 0.1% (v/v) Tween®-20. 48 hours after treatment, the wheat plants were inoculated with a Bipolaris sorokiniana spore solution (with 15000 spores/ml) and placed in a dark grow tent with high humidity (>80% RH) for 24 hours at 23° C. Subsequently, the plants were moved to a high humidity environment (>80% RH) at 23° C. and 12 hours of light and dark until fungal infection was visible on the leaves of the mock-treated plants (usually after about four days). Symptoms were evaluated by photographing the infected leaves and processing the images through machine learning image analysis software (Ilastik) to determine the symptomatic areas relative to the total leaf area. […] The infection levels in the treated plants were similar to those treated with 1 μM ascr #18. […] In FIG. 1, error bars depict standard error of the mean for a total n≥35 plants across 4 independent experiments. Outliers were removed with the GraphPad ROUT method, and significance determined by a one-way ANOVA test.

[2] = LC-MS analysis of the treatment solutions (Input); type: physicochemical; settings: 10 μM aqueous treatment solutions used to treat the sprouts; Rep1/Rep2
Experimental: as §1
Sprouts were collected, thoroughly rinsed with MQ water, dried, flash-frozen, and homogenized. The homogenized tissues were extracted with 100% ethanol and the extracts were analyzed using high-resolution liquid chromatography-mass spectrometry (LC-MS). […] Samples were injected and analyzed in negative electrospray ionization mode with an m/z range of 100-1000. […] Samples were also analyzed in positive ionization mode.
as §2

| Compound | hydrolysis or metabolism by the plant [1] | infection symptoms (symptomatic areas relative to the total leaf area) compared to mock (Bipolaris sorokiniana) | efficacy in reducing fungal infection relative to ascr #18 (Bipolaris sorokiniana) | Input (LCMS detector response for diagnostic ion of the analog or ascr#18) [2] | uptake by plants ([1]; alfalfa sprouts, 10 μM) | half-life in the plant relative to ascr #18 ([1]; alfalfa, inferred from LC-MS data of Table 1) |
| --- | --- | --- | --- | --- | --- | --- |
| C[C@H](CCCCCCCCC(=O)NCCO)O[C@@H]1O[C@@H](C)[C@H](O)C[C@H]1O [1b, (R)-10-(((2R,3R,5R,6S)-3,5-dihydroxy-6-methyltetrahydro-2H-pyran-2-yl)oxy)-N-(2-hydroxyethyl)-undecanamide] | hydrolyzed or metabolized by the plant | reduced infection symptoms | comparable to that of ascr #18 |  |  |  |
| C[C@H](CCCCCCCCC(N)=O)O[C@@H]1O[C@@H](C)[C@H](O)C[C@H]1O [1c, (R)-10-(((2R,3R,5R,6S)-3,5-dihydroxy-6-methyltetrahydro-2H-pyran-2-yl)oxy)-undecanamide] | hydrolyzed or metabolized by the plant | reduced infection symptoms | comparable to that of ascr #18 |  |  |  |
| CCN(CC)C(=O)CCCCCCCC[C@@H](C)O[C@@H]1O[C@@H](C)[C@H](O)C[C@H]1O [compound 1a, (R)-10-(((2R,3R,5R,6S)-3,5-dihydroxy-6-methyltetrahydro-2H-pyran-2-yl)oxy)-N,N-diethylundecanamide] | not hydrolyzed or metabolized | reduced infection symptoms | comparable to that of ascr #18 | 4.03E+06 and 6.78E+06 | taken up by plants | longer half life than ascr #18 or the other analogs tested |
